Data published in patent publication US8415469B2, “Compounds and methods for kinase modulation, and indications therefor” (Plexxikon Inc., priority 2005, dated 2013).

Key:
Type in all cases: biochemical
FGFR1 = target: T1, FGFR1 (Homo sapiens, UniProt P11362, C488A/C584S); assay: AlphaScreen kinase assay, FGFR1; conditions: read-out: IC50, activity toward kinase FGFR
T1 construct: P1351.pET N6 BI-PTP FGFR A458-E765-X C488A, C584S; made in house; host or cells: E. coli (PTP1B co-expressed)
Experimental: AlphaScreen assays were done using compounds dissolved in DMSO to a concentration of 20 mM. The compounds were diluted accordingly to the desired final concentrations in each sample well, using 1:3 serial dilution for a total of 8 concentration points. Plates were prepared such that each kinase reaction is 20 μl in 1× kinase buffer, 5% DMSO and 10 μM ATP. After incubation of the kinase reaction for 1 hour at room temperature, 5 μl of donor beads in stop buffer (50 mM EDTA in 1× kinase buffer) was added, the sample was mixed and incubated for 20 minutes at room temperature before adding 5 μl of acceptor beads in stop buffer. The samples were incubated for 60 minutes at room temperature and the signal per well was read on AlphaQuest reader.

Kdr = target: T2, Kdr (Homo sapiens, UniProt P35968); assay: Z'-Lyte FRET kinase assay (Invitrogen), Kdr; conditions: read-out: IC50, activity toward kinase Kdr
T2 construct: purchased Invitrogen (assay run by Invitrogen)

Fms = target: T3, Fms (Homo sapiens, UniProt P07333); assay: AlphaScreen kinase assay, Fms; conditions: read-out: IC50, activity toward kinase Fms
T3 construct: purchased Upstate Biotechnology

Flt1 = target: T4, Flt1 (Homo sapiens, UniProt P17948); assay: AlphaScreen kinase assay, Flt1; conditions: read-out: IC50, activity toward kinase Flt1
T4 construct: P1826.pETN6 BI-PTP FLT1 M799-D1165-X WT; His6 (N); made in house; host or cells: E. coli (PTP1B co-expressed)
T4 sequence (P17948 with tags, fused parts or gaps): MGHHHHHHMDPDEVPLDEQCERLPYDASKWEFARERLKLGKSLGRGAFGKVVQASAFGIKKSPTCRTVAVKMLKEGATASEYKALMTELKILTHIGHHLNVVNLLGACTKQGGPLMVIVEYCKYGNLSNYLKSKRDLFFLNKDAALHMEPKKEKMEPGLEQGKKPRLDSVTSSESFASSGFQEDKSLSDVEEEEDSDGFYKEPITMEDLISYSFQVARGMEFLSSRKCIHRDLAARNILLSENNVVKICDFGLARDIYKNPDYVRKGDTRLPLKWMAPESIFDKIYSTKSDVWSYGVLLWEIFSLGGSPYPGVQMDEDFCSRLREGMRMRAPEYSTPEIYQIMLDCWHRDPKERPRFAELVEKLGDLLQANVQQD

Src = target: T5, Src (Homo sapiens, UniProt P12931); assay: AlphaScreen kinase assay, Src; conditions: read-out: IC50, activity toward kinase Src
T5 construct: P1144. pET-N6 BI-PTP SRC V86-L536-X; made in house

B-Raf V600E = target: T6, B-Raf V600E (Homo sapiens, UniProt P15056, V600E); assay: AlphaScreen kinase assay, B-Raf V600E; conditions: read-out: IC50, activity toward kinase B-Raf V600E
T6 construct: P4254. pFastBacBD-CDC37 BRAF D437-K722-X, V600E; His6 with pFastBac HT leader (TEV site) (N); made in house; host or cells: Sf9 (baculovirus; chaperone CDC37 co-expressed)

Kit = target: T7, Kit (Homo sapiens, UniProt P10721); assay: AlphaScreen kinase assay, Kit; conditions: read-out: IC50, activity toward kinase Kit
T7 construct: P1332.N6 BI PTP KIT M552-K948-X COD; His6 (N); made in house; host or cells: E. coli (PTP1B co-expressed)

Ret = target: T8, Ret (Homo sapiens, UniProt P07949); assay: AlphaScreen kinase assay, Ret; conditions: read-out: IC50, activity toward kinase Ret
T8 construct: P1378.pET-SF BI-PTP RET H661-R1012 HIS; made in house
T8 sequence (P07949 with tags, fused parts or gaps): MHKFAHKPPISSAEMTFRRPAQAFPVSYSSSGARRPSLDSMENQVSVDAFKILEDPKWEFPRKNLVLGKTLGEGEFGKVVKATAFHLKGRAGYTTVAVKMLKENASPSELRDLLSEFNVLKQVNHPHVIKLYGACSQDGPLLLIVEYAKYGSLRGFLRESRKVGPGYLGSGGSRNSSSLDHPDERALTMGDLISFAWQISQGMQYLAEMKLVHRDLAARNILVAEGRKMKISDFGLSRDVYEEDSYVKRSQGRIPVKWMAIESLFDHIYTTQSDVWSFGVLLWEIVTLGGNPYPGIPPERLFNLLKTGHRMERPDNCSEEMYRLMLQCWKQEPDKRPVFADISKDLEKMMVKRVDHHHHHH

Flt4 = target: T9, Flt4 (Homo sapiens, UniProt P35916); assay: AlphaScreen kinase assay, Flt4; conditions: read-out: IC50, activity toward kinase Flt4
T9 construct: purchased ProQinase GmbH (Freiburg, Germany)
Source text: AlphaScreen assay was used to screen additional kinases. The assay is similarly dependent on the phosphorylation of a peptide substrate. In this assay, an antibody that recognizes phosphorylated substrate is bound to an acceptor bead. The peptide substrate is attached to biotin, which binds to a donor head that contains streptavidin. Thus phosphorylated substrate is bound by antibody and streptavidin, bringing the donor and acceptor heads into close proximity when kinase is not inhibited. The donor produces singlet oxygen which results in emission from the acceptor when they are in close proximity. Conversely, when kinase is inhibited, the donor and acceptor beads are not associated and the emission from the acceptor is reduced.
AlphaScreen assays were done using compounds dissolved in DMSO to a concentration of 20 mM. The compounds were diluted accordingly to the desired final concentrations in each sample well, using 1:3 serial dilution for a total of 8 concentration points.

Jnk3 = target: T10, Jnk3 (Homo sapiens, UniProt P53779); assay: AlphaScreen kinase assay, Jnk3; conditions: read-out: IC50, activity toward kinase Jnk3
T10 construct: purchased Upstate Biotechnology

Jnk1 = target: T11, Jnk1 (Homo sapiens, UniProt P45983); assay: AlphaScreen kinase assay, Jnk1; conditions: read-out: IC50, activity toward kinase Jnk1
T11 construct: purchased Upstate Biotechnology

Jnk2 = target: T12, Jnk2 (Homo sapiens, UniProt P45984); assay: AlphaScreen kinase assay, Jnk2; conditions: read-out: IC50, activity toward kinase Jnk2
T12 construct: purchased Roche Protein Expression Group (Indianapolis, IN)
Outline: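 Kinase activity was measured as phosphorylation of a biotinylated peptide, detected with streptavidin donor and phospho-antibody acceptor beads. Compounds, from 20 mM DMSO stocks, were tested at eight concentrations in 1:3 serial dilution.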

Fak = target: T13, Fak (Homo sapiens, UniProt Q05397); assay: AlphaScreen kinase assay, Fak; conditions: read-out: IC50, activity toward kinase Fak
T13 construct: P1358.pFastBacHtb FAK S411-Q686-X; His6 with pFastBacHTb leader (TEV site) (N); made in house; host or cells: Sf9 (baculovirus)

Yes = target: T14, Yes (Homo sapiens, UniProt P07947); assay: Z'-Lyte FRET kinase assay (Invitrogen), Yes; conditions: read-out: IC50, activity toward kinase Yes
T14 construct: purchased Invitrogen (Carlsbad, Calif.), screening service
Outline: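 Inhibition was inferred from protease cleavage of non-phosphorylated peptide, measured as a coumarin/fluorescein ratio. Kinase reactions used 10 μM ATP for 1 h at room temperature.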

Btk = target: T15, Btk (Homo sapiens, UniProt Q06187); assay: Z'-Lyte FRET kinase assay (Invitrogen), Btk; conditions: read-out: IC50, activity toward kinase Btk
T15 construct: purchased Invitrogen (assay run by Invitrogen)

c-Raf-1 = target: T16, c-Raf-1 (Homo sapiens, UniProt P04049); assay: AlphaScreen kinase assay, c-Raf-1; conditions: read-out: IC50, activity toward kinase c-Raf-1
T16 construct: purchased Upstate Biotechnology

Stk6 = target: T17, Stk6 (Homo sapiens, UniProt O14965); assay: Z'-Lyte FRET kinase assay (Invitrogen), Stk6; conditions: read-out: IC50, activity toward kinase Stk6
T17 construct: purchased Invitrogen (Carlsbad, Calif.), screening service
T17 sequence (O14965 1-403): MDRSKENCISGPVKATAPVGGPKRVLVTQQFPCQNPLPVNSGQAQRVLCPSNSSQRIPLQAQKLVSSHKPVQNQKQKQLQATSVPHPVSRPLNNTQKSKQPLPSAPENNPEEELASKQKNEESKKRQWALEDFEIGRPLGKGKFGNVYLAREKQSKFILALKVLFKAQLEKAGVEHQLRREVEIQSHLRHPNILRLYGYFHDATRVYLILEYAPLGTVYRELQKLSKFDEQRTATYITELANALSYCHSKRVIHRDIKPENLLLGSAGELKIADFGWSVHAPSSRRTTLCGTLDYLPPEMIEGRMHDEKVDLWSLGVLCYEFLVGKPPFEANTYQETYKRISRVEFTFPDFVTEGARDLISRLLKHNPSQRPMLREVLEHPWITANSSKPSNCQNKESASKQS

Measured: IC50

T3 sequence (P07333 20-972): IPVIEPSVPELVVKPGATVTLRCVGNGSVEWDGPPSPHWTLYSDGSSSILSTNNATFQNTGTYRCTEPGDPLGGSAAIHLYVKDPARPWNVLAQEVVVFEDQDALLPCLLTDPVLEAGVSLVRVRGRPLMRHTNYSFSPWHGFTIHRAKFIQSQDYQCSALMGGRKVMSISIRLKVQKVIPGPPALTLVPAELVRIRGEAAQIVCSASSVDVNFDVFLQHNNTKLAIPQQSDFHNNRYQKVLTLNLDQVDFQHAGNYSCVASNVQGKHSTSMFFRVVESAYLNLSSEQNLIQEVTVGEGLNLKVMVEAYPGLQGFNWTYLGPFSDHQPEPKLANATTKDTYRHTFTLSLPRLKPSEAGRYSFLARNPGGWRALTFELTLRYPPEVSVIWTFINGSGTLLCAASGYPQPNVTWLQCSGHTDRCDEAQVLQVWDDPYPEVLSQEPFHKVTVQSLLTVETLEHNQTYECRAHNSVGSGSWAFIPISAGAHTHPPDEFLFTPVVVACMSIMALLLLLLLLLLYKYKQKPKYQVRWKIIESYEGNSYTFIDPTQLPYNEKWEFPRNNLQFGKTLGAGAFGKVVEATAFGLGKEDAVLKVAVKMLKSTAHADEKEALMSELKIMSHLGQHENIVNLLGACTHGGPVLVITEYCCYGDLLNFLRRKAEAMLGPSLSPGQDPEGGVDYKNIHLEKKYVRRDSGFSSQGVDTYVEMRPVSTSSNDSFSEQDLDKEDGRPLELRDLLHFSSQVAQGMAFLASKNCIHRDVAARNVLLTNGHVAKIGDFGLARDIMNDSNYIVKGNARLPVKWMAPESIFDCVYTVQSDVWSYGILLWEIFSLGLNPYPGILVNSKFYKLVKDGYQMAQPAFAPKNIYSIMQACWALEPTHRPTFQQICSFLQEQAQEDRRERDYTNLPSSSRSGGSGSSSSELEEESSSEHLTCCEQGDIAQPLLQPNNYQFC
T1 sequence (P11362 458-765 C488A/C584S): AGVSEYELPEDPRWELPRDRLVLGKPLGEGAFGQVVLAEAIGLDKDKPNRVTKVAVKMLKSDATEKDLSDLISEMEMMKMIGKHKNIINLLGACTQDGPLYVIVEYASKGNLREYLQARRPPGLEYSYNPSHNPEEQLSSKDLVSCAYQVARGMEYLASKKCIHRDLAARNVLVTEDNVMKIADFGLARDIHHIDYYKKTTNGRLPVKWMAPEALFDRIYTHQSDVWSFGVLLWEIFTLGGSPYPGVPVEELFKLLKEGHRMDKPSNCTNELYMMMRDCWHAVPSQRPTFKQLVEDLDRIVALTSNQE
T10 sequence (P53779 whole entry): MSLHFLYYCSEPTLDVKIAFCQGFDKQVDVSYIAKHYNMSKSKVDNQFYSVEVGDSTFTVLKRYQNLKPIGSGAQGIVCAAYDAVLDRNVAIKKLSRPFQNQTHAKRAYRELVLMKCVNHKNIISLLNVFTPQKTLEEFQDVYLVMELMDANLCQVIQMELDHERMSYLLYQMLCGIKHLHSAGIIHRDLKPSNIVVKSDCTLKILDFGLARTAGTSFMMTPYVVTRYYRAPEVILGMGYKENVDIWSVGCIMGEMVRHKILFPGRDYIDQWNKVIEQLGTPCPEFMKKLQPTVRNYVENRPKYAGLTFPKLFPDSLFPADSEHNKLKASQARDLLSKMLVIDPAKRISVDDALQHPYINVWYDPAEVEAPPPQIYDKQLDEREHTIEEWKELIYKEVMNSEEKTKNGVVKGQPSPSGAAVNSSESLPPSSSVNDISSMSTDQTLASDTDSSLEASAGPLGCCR
T6 sequence (P15056 with tags, fused parts or gaps V600E): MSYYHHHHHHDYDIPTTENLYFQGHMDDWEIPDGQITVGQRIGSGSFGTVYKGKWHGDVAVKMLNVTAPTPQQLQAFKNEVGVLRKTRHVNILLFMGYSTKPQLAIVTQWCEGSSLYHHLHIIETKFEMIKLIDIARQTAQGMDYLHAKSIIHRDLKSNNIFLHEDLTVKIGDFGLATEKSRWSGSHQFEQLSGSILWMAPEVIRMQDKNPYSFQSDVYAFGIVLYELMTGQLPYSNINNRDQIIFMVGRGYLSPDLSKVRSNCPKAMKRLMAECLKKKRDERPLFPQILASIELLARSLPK
T9 sequence (P35916 25-1363): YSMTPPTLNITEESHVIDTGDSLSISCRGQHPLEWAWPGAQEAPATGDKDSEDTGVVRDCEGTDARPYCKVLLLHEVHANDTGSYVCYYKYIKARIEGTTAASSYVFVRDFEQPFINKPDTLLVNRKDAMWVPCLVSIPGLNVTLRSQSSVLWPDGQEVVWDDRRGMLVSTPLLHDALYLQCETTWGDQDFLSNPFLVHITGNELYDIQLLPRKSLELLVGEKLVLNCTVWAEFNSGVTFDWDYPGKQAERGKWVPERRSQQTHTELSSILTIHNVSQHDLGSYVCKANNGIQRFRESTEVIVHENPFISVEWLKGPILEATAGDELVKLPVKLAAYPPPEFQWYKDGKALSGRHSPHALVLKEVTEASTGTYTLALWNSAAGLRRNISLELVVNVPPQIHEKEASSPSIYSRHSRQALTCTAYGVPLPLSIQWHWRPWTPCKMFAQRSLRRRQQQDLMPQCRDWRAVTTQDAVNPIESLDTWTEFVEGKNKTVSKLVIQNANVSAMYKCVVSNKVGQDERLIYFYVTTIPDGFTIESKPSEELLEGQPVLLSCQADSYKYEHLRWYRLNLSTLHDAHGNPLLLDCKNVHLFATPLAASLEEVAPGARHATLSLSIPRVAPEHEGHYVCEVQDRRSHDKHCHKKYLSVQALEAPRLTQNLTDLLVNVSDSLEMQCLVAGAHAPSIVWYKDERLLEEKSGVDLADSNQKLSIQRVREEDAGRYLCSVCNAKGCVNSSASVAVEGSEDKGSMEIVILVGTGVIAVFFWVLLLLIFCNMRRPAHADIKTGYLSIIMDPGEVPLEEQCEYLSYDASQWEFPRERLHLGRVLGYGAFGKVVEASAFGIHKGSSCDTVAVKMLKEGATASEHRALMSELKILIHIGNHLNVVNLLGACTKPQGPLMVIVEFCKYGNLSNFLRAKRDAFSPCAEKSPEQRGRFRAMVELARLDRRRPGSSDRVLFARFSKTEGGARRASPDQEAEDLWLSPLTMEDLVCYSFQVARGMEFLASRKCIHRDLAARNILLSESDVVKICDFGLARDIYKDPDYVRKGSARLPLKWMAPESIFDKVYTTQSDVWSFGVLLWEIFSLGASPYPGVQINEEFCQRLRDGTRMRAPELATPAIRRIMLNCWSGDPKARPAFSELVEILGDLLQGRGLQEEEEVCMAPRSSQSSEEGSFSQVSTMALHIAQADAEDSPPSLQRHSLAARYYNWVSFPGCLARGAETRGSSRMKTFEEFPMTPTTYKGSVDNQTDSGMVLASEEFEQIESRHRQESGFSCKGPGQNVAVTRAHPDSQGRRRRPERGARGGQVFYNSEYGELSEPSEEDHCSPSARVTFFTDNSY
T2 sequence (P35968 20-1356): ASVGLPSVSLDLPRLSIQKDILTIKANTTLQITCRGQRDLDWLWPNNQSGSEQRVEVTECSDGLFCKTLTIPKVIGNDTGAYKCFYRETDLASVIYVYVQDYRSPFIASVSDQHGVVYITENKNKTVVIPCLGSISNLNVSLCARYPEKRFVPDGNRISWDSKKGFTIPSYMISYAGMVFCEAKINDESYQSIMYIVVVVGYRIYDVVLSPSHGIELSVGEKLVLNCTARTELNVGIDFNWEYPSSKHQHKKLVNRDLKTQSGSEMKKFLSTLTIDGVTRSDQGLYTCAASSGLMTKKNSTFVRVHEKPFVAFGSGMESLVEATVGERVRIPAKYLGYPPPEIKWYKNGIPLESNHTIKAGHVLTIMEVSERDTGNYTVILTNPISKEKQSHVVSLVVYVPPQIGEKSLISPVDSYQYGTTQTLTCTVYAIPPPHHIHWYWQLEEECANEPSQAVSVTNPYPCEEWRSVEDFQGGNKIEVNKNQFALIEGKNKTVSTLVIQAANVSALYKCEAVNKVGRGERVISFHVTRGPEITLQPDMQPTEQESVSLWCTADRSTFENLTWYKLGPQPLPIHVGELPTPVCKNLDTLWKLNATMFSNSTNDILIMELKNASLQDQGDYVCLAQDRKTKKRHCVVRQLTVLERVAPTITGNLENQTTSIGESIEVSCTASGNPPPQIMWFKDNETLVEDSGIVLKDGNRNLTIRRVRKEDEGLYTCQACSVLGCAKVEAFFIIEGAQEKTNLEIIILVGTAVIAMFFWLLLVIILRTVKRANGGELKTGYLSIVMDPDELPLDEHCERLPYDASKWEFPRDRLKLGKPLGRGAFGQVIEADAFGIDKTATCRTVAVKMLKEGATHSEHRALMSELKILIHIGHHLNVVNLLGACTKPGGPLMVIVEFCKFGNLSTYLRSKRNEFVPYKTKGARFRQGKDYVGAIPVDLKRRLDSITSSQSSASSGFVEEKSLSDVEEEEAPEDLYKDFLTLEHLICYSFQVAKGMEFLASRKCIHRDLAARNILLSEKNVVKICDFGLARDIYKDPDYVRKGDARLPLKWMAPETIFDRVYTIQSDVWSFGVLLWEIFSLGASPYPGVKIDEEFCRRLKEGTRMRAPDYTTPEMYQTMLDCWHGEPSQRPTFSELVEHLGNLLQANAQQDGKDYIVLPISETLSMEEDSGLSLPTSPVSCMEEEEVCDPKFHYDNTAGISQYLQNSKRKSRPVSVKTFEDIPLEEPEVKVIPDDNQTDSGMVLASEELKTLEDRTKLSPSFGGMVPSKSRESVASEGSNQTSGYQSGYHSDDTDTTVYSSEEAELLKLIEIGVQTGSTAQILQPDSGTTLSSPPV
T13 sequence (Q05397 411-686): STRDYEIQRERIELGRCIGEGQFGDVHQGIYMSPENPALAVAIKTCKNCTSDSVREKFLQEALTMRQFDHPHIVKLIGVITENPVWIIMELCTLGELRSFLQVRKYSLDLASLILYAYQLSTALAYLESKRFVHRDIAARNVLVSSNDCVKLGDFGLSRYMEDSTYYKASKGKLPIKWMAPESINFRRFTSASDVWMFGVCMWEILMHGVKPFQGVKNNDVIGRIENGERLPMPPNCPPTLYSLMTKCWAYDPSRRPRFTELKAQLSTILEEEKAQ

COc1ccc(C(=O)c2c[nH]c3ncc(-c4cccs4)cc23)cc1 [Compound P-0771]
≤ 10 µM: FGFR1 | Kdr | Fms | Flt1 | Src | B-Raf V600E | Kit | Ret | Flt4

CC(=O)Nc1cccc(-c2cnc3[nH]cc(C(=O)c4cc(C)on4)c3c2)c1 [Compound P-0632]
≤ 10 µM: FGFR1 | Kdr | Jnk3 | Flt1 | Kit | Ret | Flt4

COc1cccc(C(=O)c2c[nH]c3ncc(-c4cccs4)cc23)c1 [Compound P-0204]
≤ 10 µM: FGFR1 | Jnk1 | Kdr | Jnk3 | Jnk2 | Kit | Ret | Flt4

CC(=O)Nc1cccc(-c2cnc3[nH]cc(C(=O)c4ccccc4F)c3c2)c1 [Compound P-0668]
not listed: Fms | Jnk2 | Yes | Btk | c-Raf-1 | Stk6
≤ 10 µM: all other assays above

Cc1cc(C(=O)c2c[nH]c3ncc(-c4cccc(C(N)=O)c4)cc23)nn1C [Compound P-0737]
≤ 10 µM: FGFR1 | Kdr | Flt1 | Kit | Ret | Flt4

O=C(c1ccccc1F)c1c[nH]c2nccc(-c3cc(F)cc(F)c3)c12 [Compound P-0097]
≤ 10 µM: FGFR1 | Kdr | B-Raf V600E | Yes | Kit | Btk | Ret | Flt4

O=C(c1ccc(Cl)cc1)c1c[nH]c2ncc(-c3cccnc3)cc12 [Compound P-0418]
≤ 10 µM: c-Raf-1 | FGFR1 | Kdr | Fms | B-Raf V600E | Kit | Btk | Ret | Flt4

COc1cccc(C(=O)c2c[nH]c3ncc(-c4ccsc4)cc23)c1 [Compound P-0211]
≤ 10 µM: FGFR1 | Jnk3 | Fms | Flt1 | Fak | B-Raf V600E | Kit | Ret | Flt4

COc1cccc(C(=O)c2c[nH]c3ncc(-c4cccs4)cc23)c1F [Compound P-0206]
≤ 10 µM: FGFR1 | Kdr | Stk6 | Flt1 | Kit | Ret | Flt4

Nc1cccc(-c2cnc3[nH]cc(C(=O)c4cccc(Cl)c4Cl)c3c2)c1 [Compound P-0679]
≤ 10 µM: FGFR1 | Kdr | Flt1 | B-Raf V600E | Kit | Ret | Flt4

COc1cccc(C(=O)c2c[nH]c3ncc(-c4cccc(C(N)=O)c4)cc23)c1 [Compound P-0190]
≤ 10 µM: Kdr | Jnk3 | Kit | Ret | Flt4
